Test results reported in patent EP2608671B1, “COMPOUNDS FOR TREATMENT OF CANCER” (Gtx, Inc., priority 2010, dated 2012).
Where two headings read alike, the source gives them in different places.

Tests used:
B16-F1 = assay: SRB cell growth inhibition (cytotoxicity) assay; type: cell-based, mouse
Source text: (§1) The only compounds which belong to the invention are the ones falling under the scope of formula (XI).

A375 = assay: SRB cell growth inhibition (cytotoxicity) assay; type: cell-based, human
PC-3 = assay: cells
Source text: as §1
Cells were stained with SRB solution.
Cells. […] Cells between the third and fifth passages were used for experiments.
Cell growth inhibition studies. […] Cells were stained with sulphorhodamine B (SRB) solution.

OVCAR-8 = assay: SRB growth inhibition, MDR model parent line; type: cell-based, human
NCI/ADR-RES = assay: SRB growth inhibition, P-gp over-expressing MDR line; type: cell-based, human; conditions: for IC50: Homo sapiens, NCI/ADR-RES, P-gp over-expressed MDR cell line, Table 5A, read-out: IC50 (nM), NCI/ADR-RES; for Resistance factor: NCI/ADR-RES vs OVCAR-8, 5760 min
Bovine brain tubulin = assay: In vitro tubulin polymerization assay; type: biochemical; conditions: 10 µM; for tubulin polymerization inhibited: 20 min incubation, compared to vehicle
Source text: (§2) In Vitro Tubulin Polymerization Assay.
as §2
In vitro microtubule polymerization assay.

DU 145 = assay: cells; conditions: Homo sapiens, DU-145, 96 h
LNCaP [1] = assay: cells; conditions: Homo sapiens, 96 h, read-out: IC50 ± SEM (nM), LNCaP
PPC-1 [2] = assay: cells; conditions: Homo sapiens, PPC-1, 96 h, read-out: IC50 ± SEM (nM), PPC-1
[3] = tested on: prostate cancer cell lines (LNCaP, DU 145, PC-3, PPC-1); assay: SRB cytotoxicity, prostate cancer cell panel (text summaries); type: cell-based; conditions: Homo sapiens, read-out: IC50 against prostate cancer cells
Source text: as §1

[4] = tested on: melanoma cell lines (A375, WM-164, B16-F1) and prostate cancer cell lines (LNCaP, DU 145, PC-3, PPC-1); assay: SRB cytotoxicity, melanoma and prostate cell panel (averages); type: cell-based; conditions: Prostate cell; summary of Tables 2, 3, 21; read-out: IC50 range over tested melanoma and prostate cell lines
Source text: as §1

[5] = tested on: PC-3 prostate tumor xenograft; assay: In vivo antitumor efficacy, PC-3 xenograft; design: species or system mouse; conditions: for % T/C: Prostate (PC-3) xenograft, 21 days
Source text: (§3) PC-3 and A375 tumor xenograft studies.
(§4) In vivo antitumor activity [tumor growth inhibition (% T/C), tumor growth delay (T-C value), and tumor cell kill (total log cell kill)].

[6] = tested on: A375 human melanoma xenograft; assay: In vivo antitumor efficacy, A375 melanoma xenograft; design: species or system mouse; conditions: Melanoma (A375) xenograft, 15 mg/kg i.p.
Procedure: DTIC at 60 mg/kg was used as a positive control again.
as §3, §4

LNCaP [7] = conditions: read-out: IC50 ± SEM (nM) LNCaP; Table 21, Prostate, n = 3
[8] = rat
PPC-1 [9] = tested on: PPC-1
WM-164 = assay: SRB cell growth inhibition (cytotoxicity) assay; type: cell-based, human
[10] = Mus musculus, B16-F1, read-out: IC50 ± SEM (nM), B16-F1
[11] = Homo sapiens, A-375, 96 h, read-out: IC50 ± SEM (nM), A375
[12] = Homo sapiens, PC-3, 96 h, read-out: IC50 ± SEM (nM), PC-3
[13] = Homo sapiens, OVCAR-8, Table 5A, read-out: IC50 (nM), OVCAR-8
[14] = read-out: IC50 ± SEM (nM), DU 145
[15] = summary over LNCaP, PC-3, DU-145, PPC-1
[16] = IV, […] (1h, 2r), 5 mg/kg (5Ha, 5Hc)

Compound | IC50 (B16-F1; [10]) [nM] | IC50 (A375; [11]) [nM] | IC50 (PC-3; [12]) [nM] | Resistance factor (NCI/ADR-RES) | IC50 (DU 145; [14]) [nM] | IC50 (LNCaP [1]) [nM] | IC50 (PPC-1 [2]) [nM] | also measured
COc1cc(C(=O)c2csc(Nc3ccccc3)n2)cc(OC)c1OC [5a, (2-(Phenylamino)thiazol-4-yl)(3,4,5-trimethoxyphenyl)methanone] | 65 ± 12 | 45 ± 8 | 57 ± 3 | 0.6 | 70 ± 4 | 51 ± 1 | 54 ± 1 | IC50 (OVCAR-8; [13]): 46 ± 6 nM; IC50 (NCI/ADR-RES): 27 nM; tubulin polymerization inhibited (Bovine brain tubulin): 78%
COc1cc(C(=O)c2csc(Nc3ccc(C)cc3)n2)cc(OC)c1OC [5b, (2-(p-Tolylamino)thiazol-4-yl)(3,4,5-trimethoxyphenyl)methanone] | – | – | – | 0.8 | – | – | – | IC50 (OVCAR-8; [13]): 28 nM; IC50 (NCI/ADR-RES): 21 nM
COc1cc(C(=O)c2cc(-c3ccccc3)ncn2)cc(OC)c1OC [1b, (6-Phenylpyrimidin-4-yl)(3,4,5-trimethoxyphenyl)methanone] | > 30000 | > 30000 | 8300 | – | 6900 | 7000 | 3700 | IC50 ([3]; summary of Table 1): 3700 to 8300 nM
COc1cc(C(=O)c2csc(Nc3ccc(F)cc3)n2)cc(OC)c1OC [5c, (2-(p-Fluorophenylamino)thiazol-4-yl)(3,4,5-trimethoxyphenyl)methanone] | – | – | 43 ± 1 | 0.6 | 63 ± 1 | 41 ± 1 | – | IC50 (OVCAR-8; [13]): 44 ± 3 nM; IC50 (NCI/ADR-RES): 25 ± 6 nM
COc1cc(C(=O)c2csc(-c3ccccc3)c2)cc(OC)c1OC [1f, (5-Phenylthiophen-3-yl)(3,4,5-trimethoxyphenyl)methanone] | 72 ± 15 | 15 ± 6 | 12 | – | 26 | – | 15 | IC50 [3, 15]: 12 to 35 nM
COc1cc(C(=O)c2ccc(-c3ccccc3)o2)cc(OC)c1OC [1d, (5-Phenylfuran-2-yl)(3,4,5-trimethoxyphenyl)methanone] | 151 ± 24 | 27 ± 8 | 21 | – | 35 | 23 | 20 | IC50 [3, 15]: 12 to 35 nM
COc1cc(C(=O)c2csc(-c3ccc4[nH]ccc4c3)n2)cc(OC)c1OC [66a] | 25 ± 13 | 8 ± 1 | 7 | 0.4 | 13 | 10 | 8 | IC50 (OVCAR-8; [13]): 10 ± 3 nM; IC50 (NCI/ADR-RES): 4 ± 2 nM; IC50 [4]: 7 to 25 nM; tubulin polymerization inhibited (Bovine brain tubulin): 81%
Cc1ccc(-c2nc(C(=O)c3ccc(F)cc3)c[nH]2)cc1 [12db, (4-fluorophenyl)(2-(p-tolyl)-1H-imidazol-4-yl)methanone] | – | – | 56 ± 3 | – | – | 45 ± 2 | 34 ± 1 | IC50 (A375; Homo sapiens, A-375, A375 melanoma cells, 48 h, SRB, read-out: IC50 ± SEM (nM) A375): 143 ± 13 nM; inhibition of tubulin polymerization (Bovine brain tubulin; 15 min, Figure 22): ~80%; IC50 (DU 145; read-out: IC50 ± SEM (nM) Du 145): 78 ± 5 nM
COc1cc(C(=O)c2cccc(-c3ccccc3)n2)cc(OC)c1OC [1c, (6-Phenylpyridin-2-yl)(3,4,5-trimethoxyphenyl)methanone] | – | – | – | 0.4 | – | – | – | IC50 [3, 15]: 12 to 35 nM
COc1cc(C(=O)c2csc(-c3ccc(O)cc3)n2)cc(OC)c1OC [2l, (2-(4-Hydroxyphenyl)thiazol-4-yl)(3,4,5-trimethoxyphenyl)methanone] | 110 | 100 | 87 | – | 116 | 103 | 76 | IC50 [4]: 76 to 116 nM; inhibited tubulin polymerization (Bovine brain tubulin; 15 min, Figure 28B): 55%; Tumor volume at day 21 ([5]; PC-3, 50 mg/kg i.p., control 680 mm^3): 331 mm^3
COc1cc(C(=O)c2csc(-c3ccc(F)cc3)n2)cc(OC)c1OC [SMART-F] | – | – | – | – | – | – | – | IC50 (B16-F1; Table 21, Melanoma, n = 3, read-out: IC50 ± SEM (nM) B16-F1): 43 ± 21 nM; IC50 (A375; Table 21, Melanoma, n = 3, read-out: IC50 ± SEM (nM) A375): 33 ± 14 nM; IC50 (PC-3; read-out: IC50 ± SEM (nM) PC-3, Table 21, Prostate, n = 3): 13 ± 1 nM; IC50 (OVCAR-8; Table 21, Ovarian, n = 3, read-out: IC50 ± SEM (nM) OVCAR-8): 34 ± 3 nM; Median time to reach 600 mm^3. [6]: 29 days; % T/C ([6]; 34 days): 28%; Total log cell kill ([6]; doubling time 4.6 d): 0.7; % T/C ([5]; 5 mg/kg i.p.): 21%; % T/C ([5]; 15 mg/kg i.p.): 24%; IC50 (LNCaP [7]): 6 ± 1 nM
COc1cc(C(=O)c2cc(-c3ccccc3)on2)cc(OC)c1OC [1i, (5-Phenylisoxazol-3-yl)(3,4,5-trimethoxyphenyl)methanone] | > 30000 | > 30000 | > 10000 | – | > 10000 | > 10000 | > 10000 | IC50 ([3]; summary of Table 1): > 10000 nM
COc1cc(C(=O)N2CCC(c3ccccc3)CC2)cc(OC)c1OC [1g, (4-Phenylpiperidin-1-yl)(3,4,5-trimethoxyphenyl)methanone] | > 30000 | > 30000 | > 20000 | – | > 20000 | > 20000 | > 20000 | IC50 ([3]; summary of Table 1): > 20000 nM
COc1cc(C(=O)c2c[nH]c(Nc3ccccc3)n2)cc(OC)c1OC [5e, (2-(Phenylamino)-1H-imidazol-4-yl)(3,4,5-trimethoxyphenyl)methanone] | – | – | > 1000 | – | > 1000 | > 1000 | > 1000 | IC50 [3, 15]: > 1000 nM
COc1cc(C(=O)c2csc(Nc3ccccc3)n2)cc(OC)c1OC.Cl [5Ha, (2-(Phenylamino)thiazol-4-yl)(3,4,5-trimethoxyphenyl)methanone hydrochloride salt] | – | – | – | – | – | – | – | CL (mL/min/kg), systemic clearance [8, 16]: 17 ± 3 mL/min/kg; Vss (L/kg), volume of distribution [8, 16]: 1.4 ± 0.2 L/kg; F (%), percent oral bioavailability ([8]; Table 4, 10 mg/kg): 11%
COc1cc(C(=O)[C@H]2COC(c3ccccc3)=N2)cc(OC)c1OC [35a, (2R)-(2-Phenyl-4,5-dihydro-oxazol-4-yl)-(3,4,5-trimethoxy-phenyl)-methanone] | – | – | – | – | – | – | – | IC50 (B16-F1; SRB assay, Tables 1, 2, 3, 5B, 5C, read-out: IC50 ± SEM (nM), B16-F1): 6500 ± 800 nM; IC50 (A375; SRB assay, 96 h, Tables 1, 2, 3, 5B, 5C, read-out: IC50 ± SEM (nM), A375): 500 ± 100 nM; IC50 (PPC-1 [9]; read-out: IC50 ± SEM (nM), PPC-1, SRB assay, 96 h, Tables 1, 2, 3, 5B, 5C): 1100 ± 100 nM
COc1cc(C(=O)c2cnc(-c3ccccc3)s2)cc(OC)c1OC [1e, (2-Phenylthiazol-5-yl)(3,4,5-trimethoxyphenyl)methanone] | 12500 ± 5200 | 13600 ± 3800 | > 10000 | – | > 10000 | > 10000 | > 10000 | IC50 ([3]; summary of Table 1): > 10000 nM
COc1cc(C(=NC#N)c2csc(-c3ccccc3)n2)cc(OC)c1OC [2j, N-((2-phenylthiazol-4-yl)(3,4,5-trimethoxyphenyl)methylene)cyanamide] | 60 ± 21 | 28 ± 12 | 27 ± 1 | 0.4 | 42 ± 2 | 23 ± 2 | 20 ± 1 | IC50 (WM-164; Homo sapiens, WM164, SRB assay, 96 h, Table 2, read-out: IC50 ± SEM (nM), WM-164): 27 ± 13 nM; IC50 (OVCAR-8; [13]): 34 ± 2 nM; IC50 (NCI/ADR-RES): 14 ± 1 nM; IC50 [4]: 20 to 60 nM; tubulin polymerization inhibited (Bovine brain tubulin): 64%
(1-(phenylsulfonyl)-2-(1-(phenylsulfonyl)-1H-indol-3-yl)-1H-imidazol-4-yl)(3,4,5-trimethoxyphenyl)methanone [17yaa] | – | – | – | – | – | – | – | IC50 (B16-F1; Table 6A, read-out: IC50 (nM), B16-F1): 539 nM; IC50 (A375; Table 6A, read-out: IC50 (nM), A375): 481 nM; IC50 (WM-164; Table 6A, read-out: IC50 (nM), WM164): 468 nM; IC50 (PC-3; read-out: IC50 (nM), PC-3, Table 6A): 148 nM; IC50 (PPC-1 [9]; read-out: IC50 (nM), PPC-1, Table 6A): 209 nM
